Results as given in PubChem BioAssay AID1918991 (Molecular Pharmacology Branch, DTP, NCI, 2023).
Values joined by “and” are separate entries in the source; they are usually repeats but may differ in a detail not shown here. Identical values can stand only once.

Tested on: 186277-243-T-J2-PDC complex spheroid growth
Assay: Anticancer human tumor 186277-243-T-J2-PDC patient-derived colon adenocarcinoma cell line growth inhibition [AhR]
Details: for viability, T/C: stronger effect = lower value; active = viability on the fitted dose curve at most 10% of control; inactive = the rest
How it was run: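 Complex tumor spheroids co-cultured with HUVEC and human MSC stroma; AhR antagonists tested in combination with standard-of-care and investigational agents. Top concentration at or near clinical Cmax (else 10 microM), half-log dilutions; growth expressed as percent test/control.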

[1] = curve of first compound, second compound 0.1 µM
[2] = curve of first compound, second compound 0.316 µM
[3] = curve of first compound, second compound 1 µM
[4] = curve of first compound, second compound 3.16 µM
[5] = curve of first compound, second compound 10 µM
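Note: spheroids exposed to compounds for seven days before the viability read.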
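Throughout, for viability, T/C: luminescent signal used as a stand-in for viable cell amount; 100% = DMSO vehicle control wells.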

CC(C)CC(NC(=O)C(Cc1ccccc1)NC(=O)c1cnccn1)B(O)O (configuration not stated) + Cc1cncc(-c2nc(NCCc3c[nH]c4ccccc34)c3ncn(C(C)C)c3n2)c1
16.4 nM: IC50 [3]
< 0.949 nM: IC50 [5]
15.8 nM: IC50 [1] | IC50 [2]
active: viability, T/C (second compound 0.1 µM, first compound 0.03 µM) 1.86% | viability, T/C (second compound 0.1 µM, first compound 0.0949 µM) 0.49% | viability, T/C (second compound 0.1 µM, first compound 0.3 µM) 0.14% | viability, T/C (second compound 0.316 µM, first compound 0.03 µM) 0.33% | viability, T/C (second compound 0.316 µM, first compound 0.0949 µM) 0.05% | viability, T/C (second compound 0.316 µM, first compound 0.3 µM) 0.12% | viability, T/C (second compound 1 µM, first compound 0.03 µM) 0.51% | viability, T/C (second compound 1 µM, first compound 0.0949 µM) 0.15% | viability, T/C (second compound 1 µM, first compound 0.3 µM) 0.11% | viability, T/C (second compound 3.16 µM, first compound 0.03 µM) 0.66% | viability, T/C (second compound 3.16 µM, first compound 0.0949 µM) 0.05% | viability, T/C (second compound 3.16 µM, first compound 0.3 µM) 0.13% | viability, T/C (second compound 10 µM, first compound 0.00949 µM) 1.63% | viability, T/C (second compound 10 µM, first compound 0.03 µM) 0.26% | viability, T/C (second compound 10 µM, first compound 0.0949 µM) 0.13% | viability, T/C (second compound 10 µM, first compound 0.3 µM) 0.2%
inactive: viability, T/C (second compound 0.1 µM, first compound 0.000949 µM) 103% | viability, T/C (second compound 0.1 µM, first compound 0.003 µM) 108% | viability, T/C (second compound 0.1 µM, first compound 0.00949 µM) 88.1% | viability, T/C (second compound 0.316 µM, first compound 0.000949 µM) 131% | viability, T/C (second compound 0.316 µM, first compound 0.003 µM) 120% | viability, T/C (second compound 0.316 µM, first compound 0.00949 µM) 89.1% | viability, T/C (second compound 1 µM, first compound 0.000949 µM) 97.3% | viability, T/C (second compound 1 µM, first compound 0.003 µM) 107% | viability, T/C (second compound 1 µM, first compound 0.00949 µM) 95.2% | viability, T/C (second compound 3.16 µM, first compound 0.000949 µM) 102% | viability, T/C (second compound 3.16 µM, first compound 0.003 µM) 116% | viability, T/C (second compound 3.16 µM, first compound 0.00949 µM) 65.1% | viability, T/C (second compound 10 µM, first compound 0.000949 µM) 44.9% | viability, T/C (second compound 10 µM, first compound 0.003 µM) 53.5%
12.4 nM: IC50 [4]

CC1(C)CCC(CN2CCN(c3ccc(C(=O)NS(=O)(=O)c4ccc(NCC5CCOCC5)c([N+](=O)[O-])c4)c(Oc4cnc5[nH]ccc5c4)c3)CC2)=C(c2ccc(Cl)cc2)C1 + Cc1cncc(-c2nc(NCCc3c[nH]c4ccccc34)c3ncn(C(C)C)c3n2)c1
> 10000 nM: IC50 [1] | IC50 [2] | IC50 [3] | IC50 [4] | IC50 [5]
inactive: viability, T/C (second compound 0.1 µM, first compound 0.0316 µM) 88.2% | viability, T/C (second compound 0.1 µM, first compound 0.1 µM) 97.7% | viability, T/C (second compound 0.1 µM, first compound 0.316 µM) 99.4% | viability, T/C (second compound 0.1 µM, first compound 1 µM) 91.4% | viability, T/C (second compound 0.1 µM, first compound 3.16 µM) 94.3% | viability, T/C (second compound 0.1 µM, first compound 10 µM) 94.8% | viability, T/C (second compound 0.316 µM, first compound 0.0316 µM) 109% | viability, T/C (second compound 0.316 µM, first compound 0.1 µM) 87.4% | viability, T/C (second compound 0.316 µM, first compound 0.316 µM) 102% | viability, T/C (second compound 0.316 µM, first compound 1 µM) 83.5% | viability, T/C (second compound 0.316 µM, first compound 3.16 µM) 100% | viability, T/C (second compound 0.316 µM, first compound 10 µM) 106% | viability, T/C (second compound 1 µM, first compound 0.0316 µM) 102% | viability, T/C (second compound 1 µM, first compound 0.1 µM) 85.5% | viability, T/C (second compound 1 µM, first compound 0.316 µM) 97.4% | viability, T/C (second compound 1 µM, first compound 1 µM) 97.9% | viability, T/C (second compound 1 µM, first compound 3.16 µM) 103% | viability, T/C (second compound 1 µM, first compound 10 µM) 103% | viability, T/C (second compound 3.16 µM, first compound 0.0316 µM) 110% | viability, T/C (second compound 3.16 µM, first compound 0.1 µM) 108% | viability, T/C (second compound 3.16 µM, first compound 0.316 µM) 105% | viability, T/C (second compound 3.16 µM, first compound 1 µM) 103% | viability, T/C (second compound 3.16 µM, first compound 3.16 µM) 109% | viability, T/C (second compound 3.16 µM, first compound 10 µM) 105% | viability, T/C (second compound 10 µM, first compound 0.0316 µM) 77% | viability, T/C (second compound 10 µM, first compound 0.1 µM) 81.6% | viability, T/C (second compound 10 µM, first compound 0.316 µM) 82.8% | viability, T/C (second compound 10 µM, first compound 1 µM) 95.5% | viability, T/C (second compound 10 µM, first compound 3.16 µM) 88.4% | viability, T/C (second compound 10 µM, first compound 10 µM) 88.5%

O=C(c1cc(Cc2n[nH]c(=O)c3ccccc23)ccc1F)N1CCN(C(=O)C2CC2)CC1
> 10000 nM and 6300 nM: IC50 (curve of compound)
inactive: viability, T/C (compound 0.0316 µM) 97.8% and 98% and 85.2% | viability, T/C (compound 0.1 µM) 93.2% and 103% and 106% | viability, T/C (compound 0.316 µM) 114% and 94.5% and 98.3% | viability, T/C (compound 1 µM) 109% and 92.3% and 85% | viability, T/C (compound 3.16 µM) 132% and 89.9% and 70.9% | viability, T/C (compound 10 µM) 120% and 114% and 36.5%
